Measurements from patent publication US5610160A, “Topical 5-fluorouracil prodrug composition and method” (priority 1994, dated 1997).
≈ marks a conversion by molar mass, not a printed value. Like-named read-outs stand apart in the source and are kept apart here.

Tests used:
[1] = shake-flask, brief shaking, IPM phase analyzed immediately; conditions: 23 ± 1 °C
[2] = Partition coefficient between IPM and pH 4.0 acetate buffer; format: physicochemical; conditions: 23 ± 1° C.
Text: ^a Partition coefficient between IPM and pH 4.0 acetate buffer at 23

[3] = Solubility of prodrug in isopropyl myristate (IPM); conditions: for solubility: isopropyl myristate, organic solvent or mixture; for CIPM, equivalent mg of 5FU/ml: IPM, 23 ± 1° C., value in parentheses
Description: The results from the determination of the physicochemical properties are recorded in the tables as CIPM (the saturated solubility of the prodrug in the isopropyl myristate (IPM) vehicle/formulation in which the prodrug was applied to the mouse skins), K (the partition coefficients of the prodrug between IPM and a pH 4.0 acetate buffer) and Cw (the solubility of the prodrug in pH 4.0 acetate buffer calculated from the partition coefficient and the IPM solubility).

[4] = Diffusion cell experiments: delivery of 5-FU through hairless mouse skin; format: in vitro ADME; conditions: for Ji, flux of 5-FU through the skin: from suspensions of prodrugs in IPM, hairless mouse skin; for Cs, amount of 5-FU in the skin: leached from hairless mouse skin in 24 hours subsequent to application of prodrug in vehicle for 48 hours; for Jj, flux of theophylline through the skin after application of the prodrug/formulation (relative damage): theophylline from suspension in PG
Description: The diffusion cell experiments were conducted as described by Sloan et al in J. Invest.
^b Flux in mg/cm^2 hour of 5FU from suspensions of prodrugs in
^c Amount of 5FU in mg leached from hairless mouse skin in 24 hours
subsequent to application of prodrug in vehicle for 48 hours.
^d Flux in mg/cm^2 hour of theophylline from suspension in PG.

[5] = 22° C.; Buur et al (1986); compound 11 from Buur et al (1987); cited from earlier work
[6] = 22° C., cited from earlier work
[7] = not told; conditions: 22 °C; cited from earlier work
[8] = 37° C., 0.05 M phosphate buffer pH 7.4, cited from earlier work
[9] = 37° C., 80% human plasma; Buur et al (1984); cited from earlier work

Compound | log partition isopropyl myristate / pH 4.0 acetate buffer [1] | K, partition coefficient between IPM and pH 4.0 acetate buffer [2] | solubility [3] | Ji, flux of 5-FU through the skin [4] | Cs, amount of 5-FU in the skin [4] | Jj, flux of theophylline through the skin after application of the prodrug/formulation (relative damage) [4] | CIPM, equivalent mg of 5FU/ml [3] | Cw, solubility at pH 4.0 acetate buffer [5] | log K, octanol/pH 4.0 acetate buffer ([6]; J. Pharm. Sci. 75, 522, Buur et al (1986), compound 11 from Int. J. Pharm. 36, 41 (1987)) | log partition octanol / pH 4.0 acetate buffer [7] | Half-life, Buffer ([8]; Buur et al (1986), compound 11 from Buur et al (1987)) | log K, octanol/pH 4.0 acetate buffer ([6]; Int. J. Pharm. 21, 349, Buur et al (1984)) | Half-life, 80% Plasma [9] | Half-life, Buffer ([8]; Buur et al (1984))
CC(=O)n1cc(F)c(=O)[nH]c1=O [Compound 1] | 0.185 concentration ratio | 0.185 | 3800 µg/mL (≈ 22.1 mM) | 1.213 mg/cm^2 hour | 8.85 mg | 0.296 mg/cm^2 hour |  |  |  |  |  |  |  | 
CCC(=O)n1cc(F)c(=O)[nH]c1=O [Compound 2] | 0.764 concentration ratio | 0.764 | 6770 µg/mL (≈ 36.4 mM) | 0.560 mg/cm^2 hour | 8.96 mg | 0.219 mg/cm^2 hour |  |  |  |  |  |  |  | 
CCCC(=O)n1cc(F)c(=O)[nH]c1=O [Compound 3] | 2.69 concentration ratio | 2.69 | 3480 µg/mL (≈ 17.4 mM) | 0.168 mg/cm^2 hour | 1.07 mg | 0.185 mg/cm^2 hour |  |  |  |  |  |  |  | 
CCCCC(=O)n1cc(F)c(=O)[nH]c1=O [Compound 4] | 11.3 concentration ratio | 11.3 | 8390 µg/mL (≈ 39.2 mM) | 0.133 mg/cm^2 hour | 2.08 mg | 0.144 mg/cm^2 hour |  |  |  |  |  |  |  | 
CCCCCC(=O)n1cc(F)c(=O)[nH]c1=O [Compound 5] | 42.9 concentration ratio | 42.9 | 25700 µg/mL (≈ 113 mM) |  | 1.42 mg |  |  |  |  |  |  |  |  | 
CCCCCCCC(=O)n1cc(F)c(=O)[nH]c1=O [Compound 6] |  |  | 28400 µg/mL (≈ 111 mM) | 0.078 mg/cm^2 hour | 1.58 mg | 0.129 mg/cm^2 hour | 14.4 equivalent mg of 5FU/ml |  |  |  |  |  |  | 
COC(=O)n1cc(F)c(=O)[nH]c1=O [Compound 7] | 0.026 concentration ratio | 0.026 | 400 µg/mL (≈ 2.13 mM) | 0.343 mg/cm^2 hour | 1.08 mg | 0.337 mg/cm^2 hour |  | 23.3 mg/ml | -0.68 | -0.68 log10 concentration ratio | 190 min |  |  | 
CCCOC(=O)n1cc(F)c(=O)[nH]c1=O [Compound 9] | 0.359 concentration ratio | 0.359 | 3280 µg/mL (≈ 15.2 mM) | 0.294 mg/cm^2 hour | 0.65 mg | 0.300 mg/cm^2 hour |  |  |  |  |  |  |  | 
CCCCCCCCOC(=O)n1cc(F)c(=O)[nH]c1=O [Compound 12] |  |  | 10400 µg/mL (≈ 36.3 mM) | 0.037 mg/cm^2 hour | 0.41 mg | 0.323 mg/cm^2 hour | 4.72 equivalent mg of 5FU/ml |  |  |  |  |  |  | 
CCCC(=O)n1c(=O)[nH]cc(F)c1=O [Compound 15] | 0.97 concentration ratio | 0.97 | 4440 µg/mL (≈ 22.2 mM) |  |  | 0.204 mg/cm^2 hour | 2.89 equivalent mg of 5FU/ml |  |  | 0.67 log10 concentration ratio |  | 0.67 | 28 min | 58 min
CCCCC(=O)n1c(=O)[nH]cc(F)c1=O [Compound 16] | 1.65 concentration ratio | 1.65 |  | 0.071 mg/cm^2 hour | 0.38 mg |  |  |  |  |  |  |  |  | 
CC(=O)n1cc(F)c(=O)n(C(C)=O)c1=O [Compound 17] | 2.93 concentration ratio | 2.93 | 5600 µg/mL (≈ 26.1 mM) | 0.291 mg/cm^2 hour | 1.24 mg | 0.282 mg/cm^2 hour |  |  |  |  |  |  |  | 
CCC(=O)n1cc(F)c(=O)n(C(=O)CC)c1=O [Compound 18] | 33.8 concentration ratio | 33.8 | 17400 µg/mL (≈ 71.8 mM) | 0.090 mg/cm^2 hour | 0.51 mg | 0.288 mg/cm^2 hour |  |  |  |  |  |  |  | 
CCCC(=O)n1cc(F)c(=O)n(C(=O)CCC)c1=O [Compound 19] |  |  | 169000 µg/mL (≈ 625 mM) | 0.127 mg/cm^2 hour | 1.54 mg | 0.190 mg/cm^2 hour | 81.4 equivalent mg of 5FU/ml |  |  |  |  |  |  | 
CCCCC(=O)n1cc(F)c(=O)n(C(=O)CCCC)c1=O [Compound 20] |  |  | 352000 µg/mL (≈ 1180 mM) | 0.124 mg/cm^2 hour | 1.14 mg | 0.156 mg/cm^2 hour | 154 equivalent mg of 5FU/ml |  |  |  |  |  |  | 
